From patent US12595253B2, “Benzamides of pyrazolylamino-pyrimidinyl derivatives, and compositions and methods thereof” (LYNK PHARMACEUTICALS CO. LTD., priority 2019, dated 2026)

Assays:
Type in all cases: biochemical
JAK1 = biological target: T1, JAK1 (Homo sapiens, UniProt P23458); experiment: JAK1 microfluidic kinase assay (Caliper EZ Reader II, FAM labeled peptide substrate)
T1 construct: purchased Carna Biosciences
Method: (§1) Compounds were tested against JAK1, JAK2, JAK2V617F and TYK2. Assay Formats: JAK activity was determined in the reaction buffer 50 mM HEPES, 0.01% Brij35, 10 mM MgCl2, 2 mM DTT by a microfluidic assay. The phosphorylation of a FAM labeled peptide substrate was monitored in the Caliper EZ Reader II (Perkin Elmer). The assay condition for each batch of enzyme (Carna Biosciences) was optimized to obtain 10% conversion rate of peptide substrate. The test compounds were dissolved in DMSO to a stock concentration of 10 mM. 3-fold serially diluted compounds with top concentration of 5 μM were pre-incubated with JAK1, JAK2, JAK2V617F or TYK2 at indicated concentrations for 10 min at ambient temperature. The final DMSO concentration of assay mixture was 1%. […] The reaction was stopped by adding 50 mM EDTA. […] The percent inhibition was calculated by the following formula. % Inhibition=(Conversionmax−Conversionsample)/(Conversionmax−Conversionmin)*100 • Conversionmax means the conversion rate in the positive well without addition of compound • Conversionmin means the conversion rate in the well without addition of enzyme • Conversionsample means the conversion rate of test compounds The dose-response (percent inhibition) curve was plotted and IC50 values were determined by GraphPad software.

JAK2 = biological target: T2, JAK2 (Homo sapiens, UniProt O60674); experiment: JAK2 microfluidic kinase assay (Caliper EZ Reader II, FAM labeled peptide substrate)
T2 construct: purchased Carna Biosciences
In short: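 3-fold serial dilutions, top 5 μM, 1% DMSO final; 10 min preincubation with enzyme, RT. Buffer: 50 mM HEPES, 0.01% Brij35, 10 mM MgCl2, 2 mM DTT. Enzyme batch tuned to 10% peptide conversion. EDTA stop, mobility-shift readout, IC50 fit.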

JAK2V617F = biological target: T3, JAK2V617F (Homo sapiens, UniProt O60674, V617F); experiment: JAK2V617F microfluidic kinase assay (Caliper EZ Reader II, FAM labeled peptide substrate); settings: JAK2V617F 2.5 nM, 1 mM ATP
T3 construct: purchased Carna Biosciences
Method: as §1

[1] = IC50 JAK1 (5 nM) (1 m MATP), JAK1 5 nM, 1 mM ATP
[2] = IC50 JAK2 ([…]) (1 mM ATP), 1 mM ATP
[3] = IC50 JAK2 ([…]) (Km ATP), Km ATP

T1 sequence (P23458 whole entry): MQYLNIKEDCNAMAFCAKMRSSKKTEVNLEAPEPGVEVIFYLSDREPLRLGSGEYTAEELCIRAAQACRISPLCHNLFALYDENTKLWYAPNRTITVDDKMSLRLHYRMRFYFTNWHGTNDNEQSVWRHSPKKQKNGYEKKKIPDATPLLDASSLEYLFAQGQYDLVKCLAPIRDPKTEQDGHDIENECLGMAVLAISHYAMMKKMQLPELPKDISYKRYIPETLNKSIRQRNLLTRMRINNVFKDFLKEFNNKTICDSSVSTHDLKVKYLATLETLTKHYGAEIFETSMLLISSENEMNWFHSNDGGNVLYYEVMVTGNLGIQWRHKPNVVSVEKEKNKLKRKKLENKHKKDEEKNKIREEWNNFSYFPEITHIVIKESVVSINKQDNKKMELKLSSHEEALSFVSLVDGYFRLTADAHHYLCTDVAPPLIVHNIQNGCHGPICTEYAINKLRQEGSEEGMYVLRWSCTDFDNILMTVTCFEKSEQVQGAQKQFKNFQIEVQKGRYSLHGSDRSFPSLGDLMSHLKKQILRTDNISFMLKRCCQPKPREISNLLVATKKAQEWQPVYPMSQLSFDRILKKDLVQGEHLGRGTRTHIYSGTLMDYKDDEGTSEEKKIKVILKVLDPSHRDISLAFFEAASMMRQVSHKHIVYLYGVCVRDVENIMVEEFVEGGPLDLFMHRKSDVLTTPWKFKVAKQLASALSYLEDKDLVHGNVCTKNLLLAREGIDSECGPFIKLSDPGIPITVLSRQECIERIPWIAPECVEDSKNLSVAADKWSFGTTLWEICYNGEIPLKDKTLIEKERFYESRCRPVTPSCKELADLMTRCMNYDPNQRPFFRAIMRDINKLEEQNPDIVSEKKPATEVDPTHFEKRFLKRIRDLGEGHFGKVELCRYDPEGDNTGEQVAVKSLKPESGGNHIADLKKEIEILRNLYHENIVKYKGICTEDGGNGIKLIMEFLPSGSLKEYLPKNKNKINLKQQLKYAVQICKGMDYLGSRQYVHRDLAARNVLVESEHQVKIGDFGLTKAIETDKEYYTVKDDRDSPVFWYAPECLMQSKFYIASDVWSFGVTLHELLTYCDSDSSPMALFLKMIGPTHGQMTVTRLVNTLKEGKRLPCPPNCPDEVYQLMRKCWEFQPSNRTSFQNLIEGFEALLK
T2 sequence (O60674 whole entry): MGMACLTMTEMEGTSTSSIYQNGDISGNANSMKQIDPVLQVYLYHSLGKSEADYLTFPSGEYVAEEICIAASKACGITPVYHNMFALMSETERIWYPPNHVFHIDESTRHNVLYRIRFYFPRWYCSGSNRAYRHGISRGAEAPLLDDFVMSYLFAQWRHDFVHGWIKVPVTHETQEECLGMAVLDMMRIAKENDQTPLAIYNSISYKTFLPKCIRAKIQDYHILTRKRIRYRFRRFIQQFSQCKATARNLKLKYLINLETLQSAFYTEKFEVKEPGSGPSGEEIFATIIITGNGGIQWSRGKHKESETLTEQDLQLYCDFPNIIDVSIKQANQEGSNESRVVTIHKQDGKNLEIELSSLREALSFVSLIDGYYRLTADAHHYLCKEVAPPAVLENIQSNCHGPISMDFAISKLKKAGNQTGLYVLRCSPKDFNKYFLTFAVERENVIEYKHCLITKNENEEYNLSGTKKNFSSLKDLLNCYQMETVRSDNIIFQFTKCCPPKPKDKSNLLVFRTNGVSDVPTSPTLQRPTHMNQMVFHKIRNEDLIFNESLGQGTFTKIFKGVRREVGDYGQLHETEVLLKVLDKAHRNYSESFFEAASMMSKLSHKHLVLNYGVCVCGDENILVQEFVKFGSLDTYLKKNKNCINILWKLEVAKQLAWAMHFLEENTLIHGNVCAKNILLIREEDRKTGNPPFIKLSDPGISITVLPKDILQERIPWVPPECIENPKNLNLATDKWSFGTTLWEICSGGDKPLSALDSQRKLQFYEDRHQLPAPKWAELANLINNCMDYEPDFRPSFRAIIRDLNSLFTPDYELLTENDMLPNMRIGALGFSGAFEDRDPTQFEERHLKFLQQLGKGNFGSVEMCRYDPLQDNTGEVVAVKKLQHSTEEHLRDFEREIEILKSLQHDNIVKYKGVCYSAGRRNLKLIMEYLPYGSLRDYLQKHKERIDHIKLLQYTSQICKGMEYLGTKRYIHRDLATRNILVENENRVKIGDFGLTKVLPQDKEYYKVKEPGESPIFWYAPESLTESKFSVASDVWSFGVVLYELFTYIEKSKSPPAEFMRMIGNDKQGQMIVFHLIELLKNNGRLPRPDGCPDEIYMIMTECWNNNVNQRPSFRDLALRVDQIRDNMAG
T3 sequence (O60674 whole entry V617F): as the sequence (O60674 whole entry) above, with V617F counted along it

Row | SMILES | IC50 (JAK1; [1]) [nM] | IC50 (JAK2; [2]) [nM] | IC50 (JAK2V617F) [nM] | IC50 (JAK2; [3]) [nM] | IC50 (JAK1; IC50 JAK1 (10 nM) (Km ATP), JAK1 10 nM, Km ATP) [nM]
1 | Cc1cnc(Nc2cnn(C3CCN(C(=O)C4CC4(F)F)CC3)c2)nc1-c1ccc(C(=O)NCC#N)cc1 (stereo not drawn) [Example 145, N-(cyanomethyl)-4-(2-((1-(1-(2,2-difluorocyclopropanecarbonyl)piperidin-4-yl)-1H-pyrazol-4-yl)amino)-5-methylpyrimidin-4-yl)benzamide] | 15.1 | 0.47 | 6.97 |  | 
2 | Cc1cnc(Nc2cnn(CC#N)c2)nc1-c1ccc(C(=O)N[C@@H](C)C#N)cc1 [Example 40, (S)—N-(1-cyanoethyl)-4-(2-((1-(cyanomethyl)-1H-pyrazol-4-yl)amino)-5-methylpyrimidin-4-yl)benzamide] | 19.1 | 15 | 92.3 |  | 
3 | Cc1cnc(Nc2cnn(C3CCN(C(=O)NC(C)(C)C)CC3)c2)nc1-c1ccc(C(=O)NCC#N)cc1 [Example 3, N-(tert-Butyl)-4-(4-((4-(4-((cyanomethyl)carbamoyl)phenyl)-5-methylpyrimidin-2-yl)amino)-1H-pyrazol-1-yl)piperidine-1-carboxamide] | 17.1 | < 0.25 | 5.26 | < 0.25 | 
4 | CO[C@H]1CC[C@@H](n2cc(Nc3ncc(C)c(-c4ccc(C(=O)N[C@@H](C)C#N)cc4)n3)cn2)CC1 [Example 90, N—((S)-1-cyanoethyl)-4-(2-((1-(cis-4-methoxycyclohexyl)-1H-pyrazol-4-yl)amino)-5-methylpyrimidin-4-yl)benzamide] | 13.1 | 0.47 | 34.3 |  | 
5 | Cc1cnc(Nc2cnn(C3CC3)c2)nc1-c1ccc(C(=O)NCC2(C#N)CC2)cc1 [Example 93, N-((1-cyanocyclopropyl)methyl)-4-(2-((1-cyclopropyl-1H-pyrazol-4-yl)amino)-5-methylpyrimidin-4-yl)benzamide] | 20.1 | 44.3 | 102 | 1.39 | 
6 | CCCn1cc(Nc2ncc(Cl)c(-c3ccc(C(=O)N[C@@H](C)C#N)cc3)n2)cn1 [Example 227, (S)-4-(5-Chloro-2-((1-propyl-1H-pyrazol-4-yl)amino)pyrimidin-4-yl)-N-(1-cyanoethyl)benzamide] | 4.08 | 3.14 | 17.6 |  | 
7 | CC(C)n1cc(Nc2ncc(Cl)c(-c3ccc(C(=O)N[C@@H](C)C#N)cc3)n2)cn1 [Example 228, (S)-4-(5-Chloro-2-((1-isopropyl-1H-pyrazol-4-yl)amino)pyrimidin-4-yl)-N-(1-cyanoethyl)benzamide] | 5.89 | 0.39 | 22 |  | 
8 | Cc1cnc(Nc2cnn(C3CC3)c2)nc1-c1ccc(C(=O)N[C@@H](C)C#N)c(F)c1 [Example 129, (S)—N-(1-Cyanoethyl)-4-(2-((1-cyclopropyl-1H-pyrazol-4-yl)amino)-5-methylpyrimidin-4-yl)-2-fluorobenzamide] | 39.9 | 49 | 118 | 1.6 | 
9 | CCn1cc(Nc2ncc(Cl)c(-c3ccc(C(=O)N[C@@H](C)C#N)cc3)n2)cn1 [Example 229, (S)-4-(5-Chloro-2-((1-ethyl-1H-pyrazol-4-yl)amino)pyrimidin-4-yl)-N-(1-cyanoethyl)benzamide] | 3.68 | 1.68 | 14.1 |  | 
10 | C[C@@H](C#N)NC(=O)c1ccc(-c2nc(Nc3cnn(C4CC4)c3)ncc2Cl)cc1F [Example 137, (S)-4-(5-Chloro-2-((1-cyclopropyl-1H-pyrazol-4-yl)amino)pyrimidin-4-yl)-N-(1-cyanoethyl)-2-fluorobenzamide] | 37 | 46.4 | 92.3 | 2.1 | 
11 | Cc1cnc(Nc2cnn(C3CC3)c2)nc1-c1ccc(C(=O)N[C@@H](C)C#N)nc1 [Example 164, (S)—N-(1-cyanoethyl)-5-(2-((1-cyclopropyl-1H-pyrazol-4-yl)amino)-5-methylpyrimidin-4-yl)picolinamide] | 36.6 | 89.3 | 142 |  | 
12 | Cc1cnc(Nc2cnn(C3CCN(CC(F)(F)F)CC3)c2)nc1-c1ccc(C(=O)NCC#N)cc1 [Example 22, N-(Cyanomethyl)-4-(5-methyl-2-((1-(1-(2,2,2-trifluoroethyl)piperidin-4-yl)-1H-pyrazol-4-yl)amino)pyrimidin-4-yl)benzamide] |  | 1.59 | 46.1 | 0.43 | 2.37
13 | Cc1cnc(Nc2cnn([C@H]3CC[C@H](C#N)CC3)c2)nc1-c1ccc(C(=O)NCC(F)(F)F)cc1 [Example 87, 4-(2-((1-(Trans-4-cyanocyclohexyl)-1H-pyrazol-4-yl)amino)-5-methylpyrimidin4-yl)-N-(2,2,2-trifluoroethyl)benzamide] | 9 | < 0.25 | 0.65 |  | 
14 | Cc1cnc(Nc2cnn([C@H]3CC[C@@H](C#N)CC3)c2)nc1-c1ccc(C(=O)NCC(F)(F)F)cc1 [Example 86, 4-(2-((1-(Cis-4-cyanocyclohexyl)-1H-pyrazol-4-yl)amino)-5-methylpyrimidin-4-yl)-N-(2,2,2-trifluoroethyl)benzamide] | 14.3 | 1.21 | 4.91 |  | 
15 | C[C@H](C#N)NC(=O)c1ccc(-c2nc(Nc3cnn(C4CC4)c3)ncc2Cl)cc1 [Example 196, (R)-4-(5-chloro-2-((1-cyclopropyl-1H-pyrazol-4-yl)amino)pyrimidin-4-yl)-N-(1-cyanoethyl)benzamide] | 34.8 | 41.3 | 71.6 |  | 
16 | Cc1cnc(Nc2cnn(C3CCOCC3)c2)nc1-c1ccc(C(=O)N2CC(C#N)C2)cc1 [Example 31, 1-(4-(5-Methyl-2-((1-(tetrahydro-2H-pyran-4-yl)-1H-pyrazol-4-yl)amino)pyrimidin-4-yl)benzoyl)azetidine-3-carbonitrile] | 235 | 71.7 | 131 | 2.07 | 
17 | Cc1cnc(Nc2cnn(C3CCCCC3)c2)nc1-c1ccc(C(=O)N[C@@H](C)C#N)cc1 [Example 89, (S)—N-(1-cyanoethyl)-4-(2-((1-cyclohexyl-1H-pyrazol-4-yl)amino)-5-methylpyrimidin-4-yl)benzamide] | 4.78 | < 0.25 | 10.1 |  | 
18 | Cn1cc(Nc2ncc(Cl)c(-c3ccc(C(=O)NCC(C)(C)C#N)cc3)n2)cn1 [Example 122, 4-(5-Chloro-2-((1-methyl-1H-pyrazol-4-yl)amino)pyrimidin-4-yl)-N-(2-cyano-2-methylpropyl)benzamide] | 19.3 |  | 73.9 | 1.1 | 
19 | Cc1cnc(Nc2cnn([C@H]3CC[C@@H](C#N)CC3)c2)nc1-c1ccc(C(=O)NCC#N)cc1 [Example 148, 4-(2-((1-(Cis-4-cyanocyclohexyl)-1H-pyrazol-4-yl)amino)-5-methylpyrimidin-4-yl)-N-(cyanomethyl)benzamide] | 13.7 |  | 34.6 |  | 
20 | Cc1cnc(Nc2cnn(C3CC3)c2)nc1-c1ccc(C(=O)N[C@H](C#N)C(C)C)cc1 [Example 197, (S)—N-(1-Cyano-2-methylpropyl)-4-(2-((1-cyclopropyl-1H-pyrazol-4-yl)amino)-5-methylpyrimidin-4-yl)benzamide] | 4.14 |  | 27.6 |  | 
21 | Cc1cnc(Nc2cnn(C3CCOC(C)C3)c2)nc1-c1ccc(C(=O)NCC#N)cc1 (stereo not drawn) [Example 72, N-(cyanomethyl)-4-(5-methyl-2-((1-(2-methyltetrahydro-2H-pyran-4-yl)-1H-pyrazol-4-yl)amino)pyrimidin-4-yl)benzamide] | 28 |  | 33.6 |  | 
22 | CC[C@@H](C#N)NC(=O)c1ccc(-c2nc(Nc3cnn(C4CCOCC4)c3)ncc2Cl)cc1 [Example 203, (S)-4-(5-chloro-2-((1-(tetrahydro-2H-pyran-4-yl)-1H-pyrazol-4-yl)amino)pyrimidin-4-yl)-N-(1-cyanopropyl)benzamide] | 5.02 |  | 3.06 |  | 
23 | Cc1cnc(Nc2cnn(C3CCOCC3)c2)nc1-c1ccc(C(=O)NCCC(F)(F)F)cc1 [Example 77, 4-(5-Methyl-2-((1-(tetrahydro-2H-pyran-4-yl)-1H-pyrazol-4-yl)amino)pyrimidin-4-yl)-N-(3,3,3-trifluoropropyl)benzamide] | 43.5 |  | 76.3 |  | 
24 | Cc1cnc(Nc2cnn([C@H]3CC[C@@H](C#N)CC3)c2)nc1-c1ccc(C(=O)N[C@@H](C)C#N)cc1 [Example 149, 4-(2-((1-(Cis-4-cyanocyclohexyl)-1H-pyrazol-4-yl)amino)-5-methylpyrimidin-4-yl)-N—((S)-1-cyanoethyl)benzamide] | 15 |  | 30.5 |  | 
